Source: patent US8470770B2, “Antimicrobial agents” (priority 2007, dated 2013)
≈ marks a conversion by molar mass, not a printed value. Bridge positions count the residues as written; N and C are the ends. Square brackets hold non-standard residues; d marks the D form. Ends that are not written are not given here. Peptide text beside a SMILES is read from it. 12Ado = NCCCCCCCCCCCC(=O)O

Assays:
[1] = system: Escherichia coli (ATCC 35218); experiment: microbe, parasite or virus in culture; details: for MIC E.c.: ATCC 35218
Experimental: (§1) Minimal inhibitory concentrations (MICs) were determined by microdilution susceptibility testing in 96-well plates using inocula of 10^6 bacteria per ml.
(§2) Cell populations were evaluated by optical density measurements at 600 nm and were calibrated against a set of standards. Hundred (100) μl of a bacterial suspension were added to 100 μl of culture medium (control) or to 100 μl of culture medium containing various polymer concentrations in 2-fold serial dilutions.
(§3) Alternatively, MICs were determined using the microbroth dilution assay recommended by the Clinical and Laboratory Standards Institute (CLSI) using two-fold serial dilutions in cation-adjusted Mueller-Hinton broth (CAMHB).
“MIC E.c.” represents the minimal inhibitory concentration of each tested polymer in μM for E. coli, measured as described hereinabove in the antibacterial activity assay (column 5 in Table 3);

[2] = Hydrophobicity estimation by HPLC reversed-phase C18 elution; type: physicochemical; details: HPLC-RP C18, linear acetonitrile gradient 1% per minute
Experimental: HPLC chromatograms were performed on C18 columns (Vydak, 250 mm×4.6 or 10 mm) using a linear gradient of acetonitrile in water (1% per minute), both solvents contained 0.1% trifluoroacetic acid. The purified polymers were subjected to mass spectrometry (ZQ Waters) to confirm their composition and stored as a lyophilized powder at −20° C. Prior to being tested, fresh solutions were prepared in water, mixed by vortex, solubilized by ultrasound, centrifuged and then diluted in the appropriate medium.
In order to estimate the hydrophobicity of each polymer, the polymer was eluted with a linear gradient of acetonitrile (1% per minute) on an HPLC reversed-phase C18 column, and the percent of acetonitrile at which the polymer was eluted was used for hydrophobicity estimation (see, “ACN (%)” in Table 3 below).
“ACN (%)” represents the percent of acetonitrile in the HPLC-RP gradient mobile phase at which the polymer was eluted and which corresponds to the estimated hydrophobicity of the polymer (column 4 in Table 3);

[3] = system: Pseudomonas aeruginosa (ATCC 9027); experiment: microbe, parasite or virus in culture; details: for MIC P.a.: ATCC 9027
Experimental: as §1, §2, §3
“MIC P.a.” represents the minimal inhibitory concentration of each tested polymer in μM for P. aeruginosa, measured as described hereinabove for the antibacterial activity assay (column 7 in Table 3);

[4] = system: methicillin resistant Staphylococcus aureus (CI 15903); experiment: microbe, parasite or virus in culture; details: for MIC MR S.a.: methicillin resistant (CI 15903); for MIC: Staphylococcus aureus, read-out: MIC MR S.a.
Experimental: as §1, §2, §3
“MIC MR S.a.” represents the minimal inhibitory concentration of each tested polymer in μM for methicillin-resistant S. aureus, measured as described hereinabove for the antibacterial activity assay of antibiotic-resistant bacteria (column 8 in Table 3);

[5] = system: Enterococcus faecalis (ATCC 29212); experiment: microbe, parasite or virus in culture; type: cell-based
[6] = system: Bacillus cereus (ATCC 11778)
Experimental: as §1, §2, §3
“MIC B.c.” represents the minimal inhibitory concentration of each tested polymer in μM for Bacillus cereus, measured as described hereinabove for the antibacterial activity assay (column 9 in Table 3); and […]

| Molecule | MIC E.c. [1] | ACN (%) (percent of acetonitrile at which the polymer was eluted; estimated hydrophobicity) [2] | MIC P.a. [3] | MIC MR S.a. [4] | MIC ([5]; ATCC 29212) | further results |
| --- | --- | --- | --- | --- | --- | --- |
| NCCCC[C@@H]1NC(=O)CCCCCCCCCCCNC(=O)[C@H](CCCCN)NC(=O)CCCCCCCCCCCNC(=O)[C@H](CCCCN)NC(=O)CCCCCCCCCCCNC(=O)[C@H](CCCCN)NC(=O)[C@H](CCCCN)NC(=O)CCCCCCCCCCCNC(=O)[C@H](CCCCN)NC(=O)CCCCCCCCCCCNC1=O [Polymer 2, Cyclic-K(NC12K)5] (cyclo(K[12Ado]K[12Ado]K[12Ado]K[12Ado]K[12Ado]K)) | 12.5 µM (≈ 21.9 µg/mL) | 46.6% | 12.5 µM (≈ 21.9 µg/mL) | 6.25 µM (≈ 11 µg/mL) | 6.25 µM (≈ 11 µg/mL) | – |
| NCCCCC1NC(=O)CCCCCCCCCCCNC(=O)C(CCCCN)NC(=O)CCCCCCCCCCCNC1=O (stereo not shown) [Polymer 3, Cyclic-(NC12K)2] | – | 49.7% | >50 µM | – | >50 µM | – |
| NCCCCC1NC(=O)CCCCCCCCCCCNC(=O)C(CCCCN)NC(=O)CCCCCCCCCCCNC(=O)C(CCCCN)NC(=O)CCCCCCCCCCCNC1=O (stereo not shown) [Polymer 4, Cyclic-(NC12K)3] | >50 µM | 47.0% | >50 µM | 12.5 µM (≈ 12.2 µg/mL) | – | MIC B.c [6]: >50 µM |
| NCCCCC1NC(=O)CCCCCCCCCCCNC(=O)C(CCCCN)NC(=O)CCCCCCCCCCCNC(=O)C(CCCCN)NC(=O)CCCCCCCCCCCNC(=O)C(CCCCN)NC(=O)CCCCCCCCCCCNC1=O (stereo not shown) [Polymer 5, Cyclic-(NC12K)4] | >50 µM | 47.4% | >50 µM | >50 µM | – | MIC B.c [6]: >50 µM |
| NCCCCC1NC(=O)CCCCCCCCCCCNC(=O)C(CCCCN)NC(=O)CCCCCCCCCCCNC(=O)C(CCCCN)NC(=O)CCCCCCCCCCCNC(=O)C(CCCCN)NC(=O)CCCCCCCCCCCNC(=O)C(CCCCN)NC(=O)CCCCCCCCCCCNC1=O (stereo not shown) [Polymer 6, Cyclic-(NC12K)5] | – | 47.7% | 50 µM (≈ 81.4 µg/mL) | – | – | MIC B.c [6]: >50 µM |
| NCCCCC1NC(=O)CCCCCCCCCCCNC(=O)C(CCCCN)NC(=O)C(CCCCN)NC(=O)CCCCCCCCCCCNC(=O)C(CCCCN)NC1=O (stereo not shown) [Polymer 7, Cyclic-(KNC12K)2] (cyclo([12Ado]KK[12Ado]KK); configuration not given here) | – | 40.7% | 25 µM (≈ 22.7 µg/mL) | – | 50 µM (≈ 45.4 µg/mL) | – |
| NCCCC[C@@H]1NC(=O)CCCCCCCCCCCNC(=O)[C@H](CCCCN)NC(=O)[C@H](CCCCN)NC(=O)CCCCCCCCCCCNC(=O)[C@H](CCCCN)NC(=O)[C@H](CCCCN)NC(=O)CCCCCCCCCCCNC(=O)[C@H](CCCCN)NC1=O [Polymer 8, Cyclic-(KNC12K)3] (cyclo(K[12Ado]KK[12Ado]KK[12Ado]K)) | 25 µM (≈ 34 µg/mL) | 41.7% | 12.5 µM (≈ 17 µg/mL) | 25 µM (≈ 34 µg/mL) | 25 µM (≈ 34 µg/mL) | – |
| NCCCCC1NC(=O)CCCCCCCCCCCNC(=O)C(CCCCN)NC(=O)C(CCCCN)NC(=O)CCCCCCCCCCCNC1=O (stereo not shown) [Polymer 9, Cyclic-NC12KKNC12K] (cyclo([12Ado]K[12Ado]KK); configuration not given here) | – | 42.7% | 50 µM (≈ 39 µg/mL) | – | 25 µM (≈ 19.5 µg/mL) | – |
| NCCCC[C@@H]1NC(=O)CCCCCCCCCCCNC(=O)[C@H](CCCCN)NC(=O)[C@H](CCCCN)NC(=O)CCCCCCCCCCCNC(=O)[C@H](CCCCN)NC(=O)[C@H](CCCCN)NC(=O)CCCCCCCCCCCNC1=O [Polymer 10, Cyclic-NC12K(KNC12K)2] (cyclo([12Ado]KK[12Ado]KK[12Ado]K)) | 12.5 µM (≈ 15.4 µg/mL) | 43.1% | 12.5 µM (≈ 15.4 µg/mL) | 12.5 µM (≈ 15.4 µg/mL) | 6.25 µM (≈ 7.71 µg/mL) | – |
| NCCCC[C@@H]1NC(=O)CCCCCCCCCCCNC(=O)[C@H](CCCCN)NC(=O)[C@H](CCCCN)NC(=O)[C@H](CCCCN)NC(=O)CCCCCCCCCCCNC(=O)[C@H](CCCCN)NC1=O [Polymer 11, Cyclic-KNC12KKKNC12K] (cyclo(K[12Ado]KKK[12Ado]K)) | >50 µM | 38% | 12.5 µM (≈ 12.9 µg/mL) | >50 µM | >50 µM | – |
| NCCCC[C@@H]1NC(=O)CCCCCCCCCCCNC(=O)[C@H](CCCCN)NC(=O)[C@H](CCCCN)NC(=O)[C@H](CCCCN)NC(=O)CCCCCCCCCCCNC(=O)[C@H](CCCCN)NC(=O)[C@H](CCCCN)NC1=O [Polymer 12, Cyclic-KNC12KKKNC12KK] (cyclo(K[12Ado]KKK[12Ado]KK)) | >50 µM | 35% | >50 µM | >50 µM | >50 µM | – |
| CCCCCCCCCCCC(=O)NCCCCC(N)C(=O)NCCCCCCCCCCCC(=O)NCCCCC(N)C(N)=O (stereo not shown) [Polymer 13, C12K(ε)NC12K(ε)NH2] | 12.5 µM (≈ 8.16 µg/mL) | 54.4% | >50 µM | 12.5 µM (≈ 8.16 µg/mL) | 12.5 µM (≈ 8.16 µg/mL) | – |
| CC(C)C[C@H](NC(=O)CNC(=O)CNC(=O)[C@@H](N)CCCNC(=N)N)C(=O)N[C@H]1CSSC[C@@H](C(=O)N[C@H](C(=O)NCC(=O)N[C@@H](CCCNC(=N)N)C(N)=O)C(C)C)NC(=O)[C@H](C(C)C)NC(=O)[C@@H]2CSSC[C@H](NC(=O)[C@H](Cc3ccc(O)cc3)NC1=O)C(=O)N[C@@H](CCCNC(=N)N)C(=O)NCC(=O)N[C@@H](CCCNC(=N)N)C(=O)N[C@@H](Cc1ccccc1)C(=O)N2 [Ref. 2, IB-367, reference compound] (H-RGGLCYCRGRFCVCVGR-NH2; disulfide 5-14, 7-12) | – | 45% | – | – | – | – |
| CC[C@H](C)[C@H](NC(=O)[C@H](CCCCN)NC(=O)[C@H](CCC(=O)O)NC(=O)[C@H](CCCCN)NC(=O)[C@H](CO)NC(=O)[C@H](CCCCN)NC(=O)[C@H](CCCNC(=N)N)NC(=O)[C@H](Cc1ccccc1)NC(=O)[C@H](Cc1ccccc1)NC(=O)[C@H](CC(=O)O)NC(=O)CNC(=O)[C@H](CC(C)C)NC(=O)[C@@H](N)CC(C)C)C(=O)NCC(=O)N[C@@H](CCCCN)C(=O)N[C@@H](CCC(=O)O)C(=O)N[C@@H](Cc1ccccc1)C(=O)N[C@@H](CCCCN)C(=O)N[C@@H](CCCNC(=N)N)C(=O)N[C@H](C(=O)N[C@H](C(=O)N[C@@H](CCC(N)=O)C(=O)N[C@@H](CCCNC(=N)N)C(=O)N[C@H](C(=O)N[C@@H](CCCCN)C(=O)N[C@@H](CC(=O)O)C(=O)N[C@@H](Cc1ccccc1)C(=O)N[C@@H](CC(C)C)C(=O)N[C@@H](CCCNC(=N)N)C(=O)N[C@@H](CC(N)=O)C(=O)N[C@@H](CC(C)C)C(=O)N[C@H](C(=O)N1CCC[C@H]1C(=O)N[C@@H](CCCNC(=N)N)C(=O)N[C@H](C(=O)N[C@@H](CCC(=O)O)C(=O)N[C@@H](CO)C(=O)O)[C@@H](C)O)C(C)C)[C@@H](C)CC)C(C)C)[C@@H](C)CC [Ref. 4, LL37, reference compound] | – | 61% | – | – | – | MIC ([5]; Enterococcus faecalis): 37.5 µM (≈ 169 µg/mL) |
| C[C@@H](O)[C@H]1C(=O)N2C(C(=O)O)=C(SCCN=CN)C[C@H]12 [Ref. 6, Imipenem, reference compound] | – | – | – | – | – | MIC [4]: > 50 µM; MIC ([5]; Enterococcus faecalis, ATCC29212): < 0.03 µM |
| CN(C)[C@@H]1C(O)=C(C(N)=O)C(=O)[C@@]2(O)C(O)=C3C(=O)c4c(O)cccc4[C@@](C)(O)[C@H]3C[C@@H]12 [Ref. 7, Tetracycline, reference compound] | – | – | – | – | – | MIC ([1]; Escherichia coli, ATCC35218, read-out: MIC E.c.): 1.8 µM (≈ 0.8 µg/mL); MIC ([3]; Pseudomonas aeruginosa, ATCC9027, read-out: MIC P.a.): > 50 µM; MIC [4]: 0.4 µM (≈ 0.178 µg/mL) |
| ALWKTLLKKVLKAAAK-NH2 (C-terminus assumed) [Ref. 3, K4S4(1-16), reference compound] | – | 47% | – | – | 3.1 µM | – |
| GIGKFLKKAKKFGKAFVKILKK-NH2 (C-terminus assumed) [Ref. 1, MSI-78, reference compound] | – | 44% | – | – | 37.5 µM | – |
